pIC50: −log10 of the molar value.
What was measured:
[1] = tested on: MDA-MB-435; assay: Growth inhibition of human MDA-MB-435 cells assessed as cell growth at 0.01 uM after 48 hrs by SRB assay relative to control; type: functional; details: MDA-MB-435, 48 h, read-out: Activity
[2] = tested on: HCC 2998; assay: Growth inhibition of human HCC2998 cells assessed as cell growth at 100 uM after 48 hrs by SRB assay relative to control; type: functional; details: HCC 2998, 48 h, read-out: Activity
[3] = tested on: OVCAR-8; assay: Growth inhibition of human OVCAR8 cells assessed as cell growth at 100 uM after 48 hrs by SRB assay relative to control; type: functional; details: OVCAR-8, 48 h, read-out: Activity
[4] = tested on: IGROV-1; assay: Growth inhibition of human IGROV1 cells assessed as cell growth at 0.01 uM after 48 hrs by SRB assay relative to control; type: functional; details: IGROV-1, 48 h, read-out: Activity
[5] = tested on: OVCAR-5; assay: Growth inhibition of human OVCAR5 cells assessed as cell growth at 0.01 uM after 48 hrs by SRB assay relative to control; type: functional; details: OVCAR-5, 48 h, read-out: Activity
[6] = tested on: HOP-92; assay: Growth inhibition of human HOP92 cells assessed as cell growth at 0.01 uM after 48 hrs by SRB assay relative to control; type: functional; details: HOP-92, 48 h, read-out: Activity
[7] = tested on: EKVX; assay: Growth inhibition of human EKVX cells assessed as cell growth at 0.01 uM after 48 hrs by SRB assay relative to control; type: functional; details: read-out: Activity
[8] = tested on: SK-MEL-2; assay: Growth inhibition of human SK-MEL-2 cells assessed as cell growth at 10 uM after 48 hrs by SRB assay relative to control; type: functional; details: SK-MEL-2, 48 h, read-out: Activity
[9] = tested on: LOX IMVI; assay: Growth inhibition of human LOXIMVI cells assessed as cell growth at 0.01 uM after 48 hrs by SRB assay relative to control; type: functional; details: read-out: Activity
[10] = tested on: SW-620; assay: Growth inhibition of human SW620 cells assessed as cell growth at 100 uM after 48 hrs by SRB assay relative to control; type: functional; details: SW-620, 48 h, read-out: Activity
[11] = tested on: SF-295; assay: Growth inhibition of human SF295 cells assessed as cell growth at 0.1 uM after 48 hrs by SRB assay relative to control; type: functional; details: SF-295, 48 h, read-out: Activity
[12] = tested on: UACC-257; assay: Growth inhibition of human UACC257 cells assessed as cell growth at 10 uM after 48 hrs by SRB assay relative to control; type: functional; details: UACC-257, 48 h, read-out: Activity
[13] = tested on: K562; assay: Cytotoxicity against human K562 cells assessed as growth inhibition after 48 hrs by SRB assay; type: functional; details: K562, 48 h
[14] = tested on: SNB-75; assay: Growth inhibition of human SNB75 cells assessed as cell growth at 10 uM after 48 hrs by SRB assay relative to control; type: functional; details: SNB-75, 48 h, read-out: Activity
[15] = tested on: SK-OV-3; assay: Growth inhibition of human SKOV3 cells assessed as cell growth at 0.01 uM after 48 hrs by SRB assay relative to control; type: functional; details: SK-OV-3, 48 h, read-out: Activity
[16] = tested on: HCC 2998; assay: Cytotoxicity against human HCC2998 cells assessed as growth inhibition after 48 hrs by SRB assay; type: functional; details: HCC 2998, 48 h
[17] = tested on: COLO 205; assay: Antiproliferative activity against human COLO205 cells assessed as reduction in cell viability by MTT assay; type: functional, cell-based
[18] = tested on: OVCAR-3; assay: Growth inhibition of human OVCAR3 cells assessed as cell growth at 100 uM after 48 hrs by SRB assay relative to control; type: functional; details: OVCAR-3, 48 h, read-out: Activity
[19] = tested on: SF-539; assay: Growth inhibition of human SF539 cells assessed as cell growth at 0.01 uM after 48 hrs by SRB assay relative to control; type: functional; details: SF-539, 48 h, read-out: Activity
[20] = tested on: NCI-H23; assay: Growth inhibition of human NCI-H23 cells assessed as cell growth at 10 uM after 48 hrs by SRB assay relative to control; type: functional; details: NCI-H23, 48 h, read-out: Activity
[21] = tested on: K562; assay: Growth inhibition of human K562 cells assessed as cell growth at 1 uM after 48 hrs by SRB assay relative to control; type: functional; details: K562, 48 h, read-out: Activity
[22] = tested on: 786-0; assay: Growth inhibition of human 786-0 cells assessed as cell growth at 10 uM after 48 hrs by SRB assay relative to control; type: functional; details: 786-0, 48 h, read-out: Activity
[23] = tested on: U-251; assay: Cytotoxicity against human U251 cells assessed as growth inhibition after 48 hrs by SRB assay; type: functional; details: U-251, 48 h
[24] = tested on: SNB-75; assay: Growth inhibition of human SNB75 cells assessed as cell growth at 0.01 uM after 48 hrs by SRB assay relative to control; type: functional; details: SNB-75, 48 h, read-out: Activity
[25] = tested on: SK-MEL-5; assay: Growth inhibition of human SK-MEL-5 cells assessed as cell growth at 100 uM after 48 hrs by SRB assay relative to control; type: functional; details: SK-MEL-5, 48 h, read-out: Activity
[26] = tested on: NCI-H322M; assay: Growth inhibition of human NCI-H322M cells assessed as cell growth at 0.01 uM after 48 hrs by SRB assay relative to control; type: functional; details: read-out: Activity
[27] = tested on: MDA-MB-468; assay: Cytotoxicity against human MDA-MB-468 cells assessed as growth inhibition after 48 hrs by SRB assay; type: functional; details: MDA-MB-468, 48 h
[28] = tested on: NCI-H322M; assay: Growth inhibition of human NCI-H322M cells assessed as cell growth at 100 uM after 48 hrs by SRB assay relative to control; type: functional; details: read-out: Activity
[29] = tested on: HCT-15; assay: Growth inhibition of human HCT15 cells assessed as cell growth at 1 uM after 48 hrs by SRB assay relative to control; type: functional; details: HCT-15, 48 h, read-out: Activity
[30] = read-out: LC50 (the source's name)
[31] = read-out: pLC50 (the source's name) (converted)

SMILES: COc1ccc2c(c1)CCc1n[nH]c(-c3cc(OC)c(OC)c(OC)c3)c1-2
- growth at 0.01 µM [1]: -45%
- growth at 100 µM [2]: -80%
- growth at 100 µM [3]: -38%
- growth at 0.01 µM [4]: 39%
- growth at 0.01 µM [5]: 56%
- growth at 0.01 µM [6]: 39%
- growth at 0.01 µM [7]: 48%
- growth at 10 µM [8]: 38%
- growth at 0.01 µM [9]: 21%
- growth at 100 µM [10]: -75%
- growth at 0.1 µM [11]: 5%
- growth at 10 µM [12]: 56%
- GI50 ([13]; read-out: GI50): < 0.01 µM
- CC50 [13, 30]: > 100 µM
- TGI ([13]; read-out: TGI): > 100 µM
- GI50 ([13]; read-out: pGI50 (converted)): < 0.01 µM
- CC50 [13, 31]: > 100 µM
- TGI ([13]; read-out: pTGI): > 100 µM
- growth at 10 µM [14]: 22%
- growth at 0.01 µM [15]: -1%
- GI50 ([16]; read-out: GI50): < 0.01 µM
- CC50 [16, 30]: 44.3 µM
- TGI ([16]; read-out: TGI): 11.4 µM
- GI50 ([16]; read-out: pGI50 (converted)): < 0.01 µM
- CC50 [16, 31]: 44.7 µM
- TGI ([16]; read-out: pTGI (converted)): 11.5 µM
- pIC50 [17]: 8.15
- growth at 100 µM [18]: -59%
- growth at 0.01 µM [19]: -12%
- growth at 10 µM [20]: -6%
- growth at 1 µM [21]: 18%
- growth at 10 µM [22]: 3%
- GI50 ([23]; read-out: GI50): < 0.01 µM
- CC50 [23, 30]: 51.3 µM
- TGI ([23]; read-out: TGI): 11.5 µM
- GI50 ([23]; read-out: pGI50 (converted)): < 0.01 µM
- CC50 [23, 31]: 51.3 µM
- TGI ([23]; read-out: pTGI (converted)): 11.5 µM
- growth at 0.01 µM [24]: 12%
- growth at 100 µM [25]: -97%
- growth at 0.01 µM [26]: 47%
- GI50 ([27]; read-out: GI50): < 0.01 µM
- LC50 (concentration killing 50% of cells) ([27]; read-out: LC50): > 100 µM
- TGI ([27]; read-out: TGI): < 0.01 µM
- GI50 ([27]; read-out: pGI50 (converted)): < 0.01 µM
- LC50 (concentration killing 50% of cells) ([27]; read-out: pLC50 (converted)): > 100 µM
- TGI ([27]; read-out: pTGI): < 0.01 µM
- growth at 100 µM [28]: -21%
- growth at 1 µM [29]: 4%

— ChEMBL document CHEMBL4346757, “Synthesis and biological evaluation of 7-methoxy-1-(3,4,5-trimethoxyphenyl)-4,5-dihydro-2H-benzo[e]indazoles as new colchicine site inhibitors” (Bioorg Med Chem Lett, 2019)
